In patent US20250145566A1, “PHENETHYLAMINE DERIVATIVES, COMPOSITIONS, AND METHODS OF USE” (Cybin IRL Limited, priority 2022, published 2025):
Read-outs that look alike come from different tables or passages of the source.

What was measured:
5-HT2A receptor = molecular target: T1, 5-HT2A receptor (Homo sapiens, UniProt P28223); conditions: literature value (Rickli et al. 2016); cited from earlier work
T1 construct: host or cells: HEK293 (ATCC CRL-1573), transient, membranes

dopamine transporter (h) = molecular target: T2, dopamine transporter (h) (Homo sapiens, UniProt Q01959); test: dopamine transporter (h) binding, [3H]BTCP
T2 construct: expressed in transfected cells; host or cells: CHO cells
T2 sequence (Q01959 whole entry): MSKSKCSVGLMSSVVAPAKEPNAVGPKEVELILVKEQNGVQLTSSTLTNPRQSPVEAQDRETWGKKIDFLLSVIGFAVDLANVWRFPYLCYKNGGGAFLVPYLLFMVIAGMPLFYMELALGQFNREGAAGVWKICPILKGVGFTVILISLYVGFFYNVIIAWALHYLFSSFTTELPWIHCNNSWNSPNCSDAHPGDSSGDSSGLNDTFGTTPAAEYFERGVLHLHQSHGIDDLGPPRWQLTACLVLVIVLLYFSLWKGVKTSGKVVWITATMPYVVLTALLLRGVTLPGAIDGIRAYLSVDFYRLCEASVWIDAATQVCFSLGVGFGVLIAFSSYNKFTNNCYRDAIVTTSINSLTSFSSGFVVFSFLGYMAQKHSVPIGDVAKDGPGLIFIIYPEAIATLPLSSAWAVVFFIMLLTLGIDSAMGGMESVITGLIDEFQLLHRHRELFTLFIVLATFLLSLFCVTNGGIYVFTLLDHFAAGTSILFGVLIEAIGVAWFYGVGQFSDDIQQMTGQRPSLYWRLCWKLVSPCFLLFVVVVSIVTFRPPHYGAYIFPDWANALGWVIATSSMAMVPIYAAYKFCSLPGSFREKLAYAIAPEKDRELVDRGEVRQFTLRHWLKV

5-HT2A (h) [1] = molecular target: T3, 5-HT2A (h) (Homo sapiens, UniProt P28223); test: 5-HT2A (h) agonist effect, IP1 HTRF functional assay; type: cell-based
T3 construct: expressed in transfected cells; host or cells: HEK-293 cells
T3 sequence (P28223 whole entry): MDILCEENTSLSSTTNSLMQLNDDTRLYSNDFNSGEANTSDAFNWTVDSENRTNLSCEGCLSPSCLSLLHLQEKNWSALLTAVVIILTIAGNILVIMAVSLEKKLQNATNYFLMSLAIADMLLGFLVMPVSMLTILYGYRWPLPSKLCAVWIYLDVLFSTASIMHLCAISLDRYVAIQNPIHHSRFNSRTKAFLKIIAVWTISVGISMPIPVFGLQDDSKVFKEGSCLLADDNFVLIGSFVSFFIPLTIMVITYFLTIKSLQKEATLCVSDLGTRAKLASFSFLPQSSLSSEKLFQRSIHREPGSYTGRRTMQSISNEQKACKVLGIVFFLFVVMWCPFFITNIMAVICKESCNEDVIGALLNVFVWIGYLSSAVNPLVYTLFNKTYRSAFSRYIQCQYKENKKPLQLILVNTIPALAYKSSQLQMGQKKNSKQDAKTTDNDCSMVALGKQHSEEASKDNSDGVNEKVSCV

5-HT2C (h) [2] = molecular target: T4, 5-HT2C (h) (Homo sapiens, UniProt P28335); test: 5-HT2C (h) agonist effect, IP1 HTRF functional assay; type: cell-based
T4 construct: expressed in transfected cells; host or cells: HEK-293 cells
T4 sequence (P28335 33-458): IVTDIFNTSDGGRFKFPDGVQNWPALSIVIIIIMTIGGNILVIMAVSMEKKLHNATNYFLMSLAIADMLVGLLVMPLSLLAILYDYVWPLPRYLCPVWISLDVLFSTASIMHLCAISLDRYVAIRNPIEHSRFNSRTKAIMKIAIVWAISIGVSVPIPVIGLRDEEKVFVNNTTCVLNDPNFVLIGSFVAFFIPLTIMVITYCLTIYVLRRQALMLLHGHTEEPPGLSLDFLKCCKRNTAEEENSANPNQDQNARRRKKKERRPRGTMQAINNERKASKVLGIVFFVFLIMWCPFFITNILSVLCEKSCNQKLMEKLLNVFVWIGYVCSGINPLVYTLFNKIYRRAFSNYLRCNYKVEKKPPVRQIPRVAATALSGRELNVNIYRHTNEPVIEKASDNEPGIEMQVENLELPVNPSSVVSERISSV

5-HT transporter (h) [3] = molecular target: T5, 5-HT transporter (h) (Homo sapiens, UniProt P31645); test: 5-HT transporter (h) binding, [3H]imipramine
T5 construct: expressed in transfected cells; host or cells: CHO cells
T5 sequence (P31645 whole entry): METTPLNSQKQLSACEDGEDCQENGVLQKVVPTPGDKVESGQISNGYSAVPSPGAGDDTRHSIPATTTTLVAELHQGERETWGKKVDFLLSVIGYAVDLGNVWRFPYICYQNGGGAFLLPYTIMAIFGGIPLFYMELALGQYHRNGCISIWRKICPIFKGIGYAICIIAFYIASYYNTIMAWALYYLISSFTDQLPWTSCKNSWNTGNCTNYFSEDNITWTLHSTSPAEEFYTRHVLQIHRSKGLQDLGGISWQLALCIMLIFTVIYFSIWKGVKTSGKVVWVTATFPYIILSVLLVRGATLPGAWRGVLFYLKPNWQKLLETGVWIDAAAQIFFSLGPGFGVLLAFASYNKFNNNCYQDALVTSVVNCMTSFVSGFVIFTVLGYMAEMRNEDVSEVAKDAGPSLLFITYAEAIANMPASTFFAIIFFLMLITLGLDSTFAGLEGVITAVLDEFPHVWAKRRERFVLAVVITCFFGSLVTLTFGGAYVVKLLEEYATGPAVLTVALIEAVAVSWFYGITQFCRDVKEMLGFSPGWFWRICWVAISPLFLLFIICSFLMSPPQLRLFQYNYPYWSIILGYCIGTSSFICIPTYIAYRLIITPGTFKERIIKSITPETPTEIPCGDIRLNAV

5-HT2C (h) [4] = molecular target: T4, 5-HT2C (h); test: 5-HT2C (h) agonist radioligand [125I](±)DOI binding
Procedure: (§1) Samples were then analyzed as described above.

Serotonin transporter = molecular target: T6, Serotonin transporter (Rattus norvegicus, UniProt P31652); test: Serotonin transporter uptake, rat brain synaptosomes; type: biochemical
T6 construct: from tissue
T6 sequence (P31652 whole entry): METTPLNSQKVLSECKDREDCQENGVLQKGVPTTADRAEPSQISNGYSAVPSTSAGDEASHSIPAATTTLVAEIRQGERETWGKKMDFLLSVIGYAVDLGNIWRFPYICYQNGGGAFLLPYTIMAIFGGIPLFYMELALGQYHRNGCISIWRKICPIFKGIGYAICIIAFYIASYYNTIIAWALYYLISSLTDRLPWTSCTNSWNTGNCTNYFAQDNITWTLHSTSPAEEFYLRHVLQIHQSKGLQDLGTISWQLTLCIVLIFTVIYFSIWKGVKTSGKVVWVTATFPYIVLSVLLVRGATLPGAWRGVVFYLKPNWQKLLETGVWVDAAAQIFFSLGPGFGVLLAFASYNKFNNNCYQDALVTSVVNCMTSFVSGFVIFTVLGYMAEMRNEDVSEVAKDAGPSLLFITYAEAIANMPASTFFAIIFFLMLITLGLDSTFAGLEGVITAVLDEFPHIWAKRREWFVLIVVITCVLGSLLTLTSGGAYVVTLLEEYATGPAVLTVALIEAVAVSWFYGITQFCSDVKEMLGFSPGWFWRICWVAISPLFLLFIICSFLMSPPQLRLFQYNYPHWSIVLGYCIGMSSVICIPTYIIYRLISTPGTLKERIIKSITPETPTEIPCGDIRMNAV

[5] = molecular target: T7, norepinephrine transporter (h) (Homo sapiens, UniProt P23975); test: norepinephrine transporter (h) binding, [3H]nisoxetine; conditions: at 10 μM; table calls these values “No Binding”
T7 construct: expressed in transfected cells; host or cells: CHO cells
T7 sequence (P23975 whole entry): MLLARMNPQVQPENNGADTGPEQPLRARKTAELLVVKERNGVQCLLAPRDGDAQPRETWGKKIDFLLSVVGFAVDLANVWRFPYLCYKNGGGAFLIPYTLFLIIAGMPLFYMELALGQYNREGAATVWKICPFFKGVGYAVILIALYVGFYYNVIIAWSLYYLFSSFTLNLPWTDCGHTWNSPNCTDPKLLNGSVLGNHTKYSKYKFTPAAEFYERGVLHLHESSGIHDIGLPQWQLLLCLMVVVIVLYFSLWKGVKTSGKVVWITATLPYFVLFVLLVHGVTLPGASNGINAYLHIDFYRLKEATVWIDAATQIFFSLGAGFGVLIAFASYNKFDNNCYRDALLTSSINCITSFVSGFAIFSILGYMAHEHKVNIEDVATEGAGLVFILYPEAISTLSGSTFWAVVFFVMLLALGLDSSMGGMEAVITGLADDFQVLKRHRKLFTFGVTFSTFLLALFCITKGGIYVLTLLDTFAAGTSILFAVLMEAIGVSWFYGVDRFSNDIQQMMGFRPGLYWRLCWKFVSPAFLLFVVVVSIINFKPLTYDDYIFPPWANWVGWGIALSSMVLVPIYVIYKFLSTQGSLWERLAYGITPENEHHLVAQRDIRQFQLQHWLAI

5-HT2A (h) [6] = molecular target: T3, 5-HT2A (h); test: 5-HT2A (h) agonist radioligand [125I](±)DOI binding
5-HT2B (h) [7] = molecular target: T8, 5-HT2B (h) (Homo sapiens, UniProt P41595); test: 5-HT2B (h) agonist effect, IP1 HTRF functional assay; type: cell-based
T8 construct: expressed in transfected cells; host or cells: CHO cells
T8 sequence (P41595 whole entry): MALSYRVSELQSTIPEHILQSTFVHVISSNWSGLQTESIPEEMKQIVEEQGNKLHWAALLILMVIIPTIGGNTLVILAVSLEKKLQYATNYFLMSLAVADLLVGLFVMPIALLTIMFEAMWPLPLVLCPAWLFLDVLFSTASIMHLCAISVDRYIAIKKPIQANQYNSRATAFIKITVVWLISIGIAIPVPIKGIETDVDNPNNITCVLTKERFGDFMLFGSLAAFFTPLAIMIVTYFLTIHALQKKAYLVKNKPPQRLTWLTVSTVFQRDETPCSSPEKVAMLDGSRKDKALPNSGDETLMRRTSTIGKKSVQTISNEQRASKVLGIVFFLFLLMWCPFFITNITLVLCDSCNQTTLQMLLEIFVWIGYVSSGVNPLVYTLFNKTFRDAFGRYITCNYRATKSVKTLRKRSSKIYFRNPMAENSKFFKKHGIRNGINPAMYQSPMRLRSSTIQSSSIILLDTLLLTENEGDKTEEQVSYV

Dopamine transporter [8] = molecular target: T9, Dopamine transporter (Homo sapiens, UniProt Q01959); test: Dopamine transporter uptake (h); type: cell-based
T9 sequence (Q01959 whole entry): as the sequence (Q01959 whole entry) above

5-HT2B (h) [9] = molecular target: T8, 5-HT2B (h); test: 5-HT2B (h) agonist radioligand [125I](±)DOI binding
Procedure: as §1

[10] = molecular target: T10, Norepinephrine transporter (Homo sapiens, UniProt P23975); test: Norepinephrine transporter uptake (h); type: cell-based
T10 sequence (P23975 whole entry): as the sequence (P23975 whole entry) above

5-HT2A (h) [11] = molecular target: T3, 5-HT2A (h); conditions: read-out: Binding 5-HT2A Ki; antagonist radioligand; literature, racemic; cited from earlier work
Dopamine transporter [12] = molecular target: T9, Dopamine transporter; conditions: variable numbers in the literature, racemic, cited from earlier work
5-HT transporter (h) [13] = molecular target: T5, 5-HT transporter (h); conditions: read-out: Binding SERT Ki; literature, racemic; cited from earlier work
[14] = molecular target: T7, norepinephrine transporter (h); conditions: read-out: Binding NET Ki; literature, racemic; cited from earlier work
[15] = molecular target: T10, Norepinephrine transporter; conditions: racemic, cited from earlier work
5-HT2A (h) [16] = molecular target: T3, 5-HT2A (h); conditions: literature, single enantiomers, cited from earlier work; for EC50: read-out: Function 5-HT2A EC50
5-HT2C (h) [17] = molecular target: T4, 5-HT2C (h); conditions: literature, single enantiomers; cited from earlier work
[18] = Hill coefficient, reference compound result
[19] = read-out: Function DAT IC50, lower end of literature range
[20] = read-out: Function DAT IC50, upper end of literature range
[21] = agonist radioligand [125I](±)DOI, reference compound result

T1 sequence (P28223 whole entry): as the sequence (P28223 whole entry) above

## COc1cc(CCN)cc(OC)c1OC [Reference Compound 1, 3,4,5-trimethoxyphenethylamine]
5-HT2A receptor
  Ki: 6300 nM

## c1ccc2sc(C3(N4CCCCC4)CCCCC3)cc2c1 [BTCP, reference compound]
Dopamine transporter (h); [18]
  nH: 1.0

## CC(N)Cc1ccc2c(c1)OCS2 (racemic) [II-16 (racemic)]
5-HT2A (h) [1]; IP-1, estimated from four concentrations, read-out: Function 5-HT2A Estimated EC50
  EC50: 2500 nM
5-HT2A (h) [1]; at 10 μM, relative to 5-HT, read-out: Function 5-HT2A EMAX
  Emax at 10 µM: 89.8%
5-HT2A (h) [1]; tested at 1, 3, 10, 100 μM
  Function 5-HT2A (IP-1, efficacy relative to 5-HT), agonist type: Nearly full agonist -
5-HT2C (h) [2]; Gq-IP1, estimated from four concentrations, read-out: Function 5-HT2C Estimated EC50
  EC50: < 800 nM
5-HT2C (h) [2]; at 10 μM, relative to 5-HT, read-out: Function 5-HT2C EMAX
  Emax at 10 µM: 99.3%
5-HT2C (h) [2]; tested at 1, 3, 10, 100 μM
  Function 5-HT2C (Gq-IP1, efficacy relative to 5-HT), agonist type: Full agonist -
5-HT transporter (h) [3]; at 10 μM
  Binding SERT (antagonist radioligand), % competition: 68.1% competition
5-HT2C (h) [4]; at 10 μM
  Binding 5-HT2C (agonist radioligand), % competition: 98.4% competition
Dopamine transporter (h); at 10 μM, table calls these values “No Binding”
  Binding DAT (antagonist radioligand), % competition: 15.7% competition
Serotonin transporter; across dose range tested (1, 3, 10, 100 μM), read-out: Function SERT, inhibition of SERT
  inhibition at up to 100 µM: 95.3 to 106%
Serotonin transporter; blocking reuptake of 5-HT, read-out: Function SERT Estimated IC50
  IC50: < 200 nM
Serotonin transporter; tested at 1, 3, 10, 100 μM
  Function SERT (blocking reuptake of 5-HT), efficacy in words: Full efficacy,
[5]
  Binding NET (antagonist radioligand), % competition: 25.2% competition
5-HT2A (h) [6]; at 10 μM
  Binding 5-HT2A (agonist radioligand), % competition: 94.4% competition
5-HT2B (h) [7]; Gq-IP1, estimated from four concentrations, read-out: Function 5-HT2B Estimated EC50
  EC50: < 500 nM
5-HT2B (h) [7]; at 1 μM, relative to 5-HT, read-out: Function 5-HT2B EMAX
  Emax at 1 µM: 100%
5-HT2B (h) [7]; tested at 1, 3, 10, 100 μM
  Function 5-HT2B (Gq-IP1, efficacy relative to 5-HT), agonist type: Full agonist -
Dopamine transporter [8]; at 100 μM, read-out: Function DAT, inhibition of DAT
  inhibition at 100 µM: 99.1%
Dopamine transporter [8]; blocking reuptake of DA, read-out: Function DAT Estimated IC50
  IC50: ~1000 nM
Dopamine transporter [8]; tested at 1, 10, 100 μM
  Function DAT (blocking reuptake of DA), efficacy in words: Full efficacy,
5-HT2B (h) [9]; at 10 μM
  Binding 5-HT2B (agonist radioligand), % competition: 100.1% competition
[10]; at 10 μM, read-out: Function NET, inhibition of NET
  inhibition at 10 µM: 93.5%
[10]; blocking reuptake of NE, read-out: Function NET Estimated IC50
  IC50: < 1000 nM
[10]; tested at 1, 10, 100 μM
  Function NET (blocking reuptake of NE), efficacy in words: Near full efficacy,

## CNC(C)Cc1ccc2c(c1)OCO2 (centres unmarked) [MDMA, 3,4-methylenedioxymethamphetamine]
5-HT2A (h) [11]
  Ki: 7800 nM
Dopamine transporter [12]; [19]
  IC50: ≥ 410 nM
Dopamine transporter [12]; [20]
  IC50: ≤ 17000 nM
5-HT transporter (h) [13]
  Ki: > 10000 nM
[14]
  Ki: > 10000 nM
[15]; read-out: Function NET IC50, lower end of literature range, variable numbers in the literature
  IC50: ≥ 108 nM
[15]; read-out: Function NET IC50, upper end of literature range, variable numbers in the literature
  IC50: ≤ 6600 nM

## CN(C)CCCN1c2ccccc2CCc2ccccc21 [imipramine, reference compound]
5-HT transporter (h) [3]; [18]
  nH: 1.2

## COc1cc(CC(C)N)c(OC)cc1I (racemic) [(±)DOI]
5-HT2C (h) [4]; [18]
  nH: 0.9
5-HT2C (h) [4]; [21]
  IC50: 0.37 nM
  Ki: 0.33 nM
5-HT2A (h) [6]; [18]
  nH: 1.0
5-HT2B (h) [9]; [18]
  nH: 1.1
5-HT2B (h) [9]; [21]
  IC50: 3.8 nM
  Ki: 1.9 nM

## CN[C@@H](C)Cc1ccc2c(c1)OCO2 [S-MDMA]
5-HT2A (h) [16]
  Function 5-HT2A EMAX: EMAX = 9%
  EC50: 10300 nM
5-HT2C (h) [17]
  Function 5-HT2C EMAX: EMAX = 53%

## CC(N)Cc1ccc2c(c1)OCO2 (centres unmarked) [MDA, 3,4-methylenedioxyamphetamine]
Dopamine transporter [12]; [19]
  IC50: ≥ 890 nM
Dopamine transporter [12]; [20]
  IC50: ≤ 21000 nM
[15]; read-out: Function NET IC50, literature
  IC50: ~300 nM

## CN[C@H](C)Cc1ccc2c(c1)OCO2 [R-MDMA]
5-HT2A (h) [16]
  Function 5-HT2A EMAX: EMAX = 21%
  EC50: 3100 nM
5-HT2C (h) [17]
  Function 5-HT2C EMAX: EMAX = 27%
